Among the data in US10428080B2, “TBK/IKK inhibitor compounds and uses thereof” (Merck Patent GmbH, priority 2015, dated 2019) are IC50 values, retold here.

The structures appear in SMILES notation. Structures can show the parent of a compound that is named as a salt.

Test [1] concerns phosphorylation of the IRF-3 protein in MDA-MB-468 cells. In words: pIRF3 immunocytochemistry cell based assay. To be noted: Homo sapiens; MDA-MB-468 cells, Poly(I:C) stimulation; read-out: pIRF3 IC50. In a few lines:
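After 2 h stimulation with Poly(I:C) (10 ug/ml), following 1 h compound pre-treatment (10-point, 3-fold dilution, top 10 uM), MDA-MB-468 cells were fixed and stained with anti-pIRF3 antibody. pIRF3 fluorescence was normalized to PI staining or cell count on an Acumen cytometer. IC50 curves were derived from this.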

The target of the next test is T1, IKKε (Homo sapiens, UniProt Q14164).
T1 sequence (Q14164 1-716): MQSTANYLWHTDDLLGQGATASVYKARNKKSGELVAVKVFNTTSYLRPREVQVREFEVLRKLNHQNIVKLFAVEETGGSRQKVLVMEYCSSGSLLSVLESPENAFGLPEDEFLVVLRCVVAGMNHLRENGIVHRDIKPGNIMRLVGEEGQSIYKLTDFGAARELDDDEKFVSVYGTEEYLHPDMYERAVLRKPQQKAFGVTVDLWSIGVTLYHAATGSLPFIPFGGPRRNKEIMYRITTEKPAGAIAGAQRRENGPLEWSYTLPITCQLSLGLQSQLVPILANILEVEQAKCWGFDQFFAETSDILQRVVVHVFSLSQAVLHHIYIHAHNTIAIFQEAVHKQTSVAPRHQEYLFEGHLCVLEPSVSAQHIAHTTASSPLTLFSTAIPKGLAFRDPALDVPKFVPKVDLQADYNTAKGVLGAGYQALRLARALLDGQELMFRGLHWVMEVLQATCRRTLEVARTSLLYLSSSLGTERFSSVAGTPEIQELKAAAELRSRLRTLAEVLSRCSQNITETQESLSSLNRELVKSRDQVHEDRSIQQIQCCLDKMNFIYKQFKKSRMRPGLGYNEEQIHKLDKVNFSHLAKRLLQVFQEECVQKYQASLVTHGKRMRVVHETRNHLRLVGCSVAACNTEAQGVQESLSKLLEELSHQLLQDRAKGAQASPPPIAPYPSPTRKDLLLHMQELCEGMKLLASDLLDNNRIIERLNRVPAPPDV
In words: IKKe Biochemical Assay. To be noted: read-out: IKKε IC50. In a few lines:
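Activity was measured as mobility-shift separation of phosphorylated from unphosphorylated substrate on a LabChip EZ Reader. Compound was titrated from 30 uM final in 10 points, 1:4 steps, with 1% DMSO, and enzyme plus substrate reacted 90 min at 25° C before stop buffer. Control wells held 10 uM staurosporine.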

Another test has as its target T2, TBK1 (Homo sapiens, UniProt Q9UHD2).
T2 sequence (Q9UHD2 1-729): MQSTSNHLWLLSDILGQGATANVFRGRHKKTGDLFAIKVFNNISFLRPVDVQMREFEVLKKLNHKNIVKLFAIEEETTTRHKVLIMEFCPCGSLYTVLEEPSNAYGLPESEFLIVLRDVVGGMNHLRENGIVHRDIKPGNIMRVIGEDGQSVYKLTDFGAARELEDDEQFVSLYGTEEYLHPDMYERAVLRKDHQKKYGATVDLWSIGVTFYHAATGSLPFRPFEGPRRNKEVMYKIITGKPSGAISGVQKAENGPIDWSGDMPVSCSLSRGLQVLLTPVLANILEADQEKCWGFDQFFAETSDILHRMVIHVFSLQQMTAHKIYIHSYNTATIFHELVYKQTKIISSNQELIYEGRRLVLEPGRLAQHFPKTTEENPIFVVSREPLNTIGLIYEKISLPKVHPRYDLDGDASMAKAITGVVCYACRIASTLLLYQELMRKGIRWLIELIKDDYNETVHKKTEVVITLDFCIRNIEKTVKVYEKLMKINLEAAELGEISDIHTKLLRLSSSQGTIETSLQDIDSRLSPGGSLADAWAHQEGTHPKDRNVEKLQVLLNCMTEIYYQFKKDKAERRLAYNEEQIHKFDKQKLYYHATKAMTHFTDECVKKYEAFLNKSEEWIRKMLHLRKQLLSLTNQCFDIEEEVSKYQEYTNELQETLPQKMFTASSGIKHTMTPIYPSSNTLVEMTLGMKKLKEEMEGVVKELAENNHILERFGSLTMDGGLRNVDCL
As to the kind of experiment: TBK Biochemical Assay. To be noted: read-out: TBK1 IC50. In a few lines: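 Caliper LabChip mobility-shift readout of substrate and product after 90 min of TBK1 reaction at 25° C and stop-buffer addition. Compounds tested in 1:4 serial dilution over 10 points from 30 uM final at 1% DMSO; staurosporine 10 uM final defines full inhibition.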

By IC50 is commonly meant the concentration needed to halve the response being measured. Turning to `CN(C)C(=O)c1ccc(-c2cc3nccc(-c4ccc(OC5(C)CCOCC5)c(C#N)c4)c3o2)cc1` [Compound 159, 4-{7-[3-Cyano-4-(4-methyl-tetrahydro-pyran-4-yloxy)-phenyl]-furo[3,2-b]pyridin-2-yl}-N,N-dimethyl-benzamide], the IC50 in test [1] was above 5 µM; at IKKε it was 0.1 to 1 µM; on TBK1, 0.1 to 1 µM.

Turning to `CN(C)C(=O)c1ccc(-c2cc3nccc(-c4ccc(OC5CCCOC5)c(C#N)c4)c3o2)cc1` (stereo not drawn) [Compound 160], the figures for the IC50 (in test [1]; on IKKε; at TBK1) were 1 to 5 µM, below 0.1 µM and 0.1 to 1 µM, respectively.

For `COc1cc(C(=O)N(C)C)ccc1-c1cc2nccc(-c3cc(C#N)c(OC4CCOCC4)cn3)c2o1` [Compound 161, 4-{7-[4-Cyano-5-(tetrahydro-pyran-4-yloxy)-pyridin-2-yl]-furo[3,2-b]pyridin-2-yl}-3-methoxy-N,N-dimethyl-benzamide], the IC50 lay in the range of 1 to 5 µM in test [1], 0.1 to 1 µM at IKKε and 0.1 to 1 µM at TBK1.

For `COc1cc(C(=O)N(C)C)ccc1-c1cc2nccc(-c3ccc(O[C@@H]4CCCNC4)c(C#N)c3)c2o1` [Compound 163, 4-{7-[3-Cyano-4-((R)-piperidin-3-yloxy)-phenyl]-furo[3,2-b]pyridin-2-yl}-3-methoxy-N,N-dimethyl-benzamide], the IC50 (in test [1]; at IKKε; at TBK1) was 0.1 to 1 µM in each case.

As to `N#Cc1cc(-c2ccnc3cc(-c4ccc(C(=O)O)cc4)oc23)ccc1OC1CCCOC1` (stereo not drawn) [Compound 166], the figures for the IC50 (in test [1]; on IKKε; on TBK1) were 0.1 to 1 µM, below 0.1 µM and 0.1 to 1 µM, respectively.

For `COc1ccc(-c2ccnc3cc(-c4ccc(C(=O)N(C)C)cc4)oc23)cc1C#N` [Compound 167, 4-[7-(3-Cyano-4-methoxy-phenyl)-furo[3,2-b]pyridin-2-yl]-N,N-dimethyl-benzamide], the figures for the IC50 (in test [1]; at IKKε; at TBK1) were 1 to 5 µM, 0.1 to 1 µM and 0.1 to 1 µM, respectively.

With `CN(C)C(=O)c1ccc(-c2cc3nccc(-c4ccc(OC5CC(CO)(CCl)C5)c(C#N)c4)c3o2)cc1` (stereo not drawn) [Compound 168, 4-{7-[4-(3-Chloromethyl-3-hydroxymethyl-cyclobutoxy)-3-cyano-phenyl]-furo[3,2-b]pyridin-2-yl}-N,N-dimethyl-benzamide], the IC50 (in test [1]; at IKKε; at TBK1) was 0.1 to 1 µM in each case.

Regarding `CN(C)C(=O)c1ccc(-c2cc3nccc(-c4ccc(OC5CCOC(C)(C)C5)c(C#N)c4)c3o2)cc1` (stereo not drawn) [Compound 170, 4-{7-[3-Cyano-4-(2,2-dimethyl-tetrahydro-pyran-4-yloxy)-phenyl]-furo[3,2-b]pyridin-2-yl}-N,N-dimethyl-benzamide], the figures for the 50% inhibitory concentration (IC50) (in test [1]; at IKKε; on TBK1) were 1 to 5 µM, 0.1 to 1 µM and 0.1 to 1 µM, respectively.

In the case of `N#Cc1cc(-c2ccnc3cc(-c4ccc(C(=O)NC5CN6CCC5CC6)cc4)oc23)ccc1OC1CCCOC1` (stereo not drawn) [Compound 171], the half-inhibitory concentration (IC50) (in test [1]; at IKKε; at TBK1) was 0.1 to 1 µM in each case.

Consider `CN(C)C(=O)c1ccc(-c2cc3nccc(-c4ccc(N5CC[C@H](N(C)C)C5)c(C#N)c4)c3o2)cc1` [Compound 173, 4-{7-[3-Cyano-4-((S)-3-dimethylamino-pyrrolidin-1-yl)-phenyl]-furo[3,2-b]pyridin-2-yl}-N,N-dimethyl-benzamide], for which the IC50 in test [1] lay in the range of 1 to 5 µM; at IKKε, 0.1 to 1 µM; at TBK1, 0.1 to 1 µM.

As to `CN(C)C(=O)c1ccc(-c2cc3nccc(-c4ccc(OC5CC6(COC6)C5)c(C#N)c4)c3o2)cc1` [Compound 177, 4-{7-[3-Cyano-4-(2-oxa-spiro[3.3]hept-6-yloxy)-phenyl]-furo[3,2-b]pyridin-2-yl}-N,N-dimethyl-benzamide], the IC50 lay in the range of 1 to 5 µM in test [1], 0.1 to 1 µM on IKKε and 0.1 to 1 µM on TBK1.

On to `CN(C)C(=O)c1ccc(-c2cc3nccc(-c4ccc(N5CCC(N(C)C6CC6)C5)c(C#N)c4)c3o2)cc1` (stereo not drawn) [Compound 179, 4-(7-{3-Cyano-4-[3-(cyclopropyl-methyl-amino)-pyrrolidin-1-yl]-phenyl}-furo[3,2-b]pyridin-2-yl)-N,N-dimethyl-benzamide], for which the half-inhibitory concentration (IC50) in test [1] was 1 to 5 µM; on IKKε, 0.1 to 1 µM; at TBK1, 0.1 to 1 µM.

Take `CN(C)C(=O)c1ccc(-c2cc3nccc(-c4ccc(NC5CCOC6(CC6)C5)c(C#N)c4)c3o2)cc1` (stereo not drawn) [Compound 286, 4-[7-[3-cyano-4-([4-oxaspiro[2.5]octan-7-yl]amino)phenyl]furo[3,2-b]pyridin-2-yl]-N,N-dimethylbenzamide]: the half-inhibitory concentration (IC50) in test [1] was 1 to 5 µM; on IKKε it was 0.1 to 1 µM; on TBK1 it was 0.1 to 1 µM.

In the case of `COc1cc(C(=O)N(C)C)ccc1-c1cc2nccc(-c3ccc(OC4CCOC5(CC5)C4)c(C#N)c3)c2o1` (stereo not drawn) [Compound 290, 4-[7-(3-cyano-4-[4-oxaspiro[2.5]octan-7-yloxy]phenyl)furo[3,2-b]pyridin-2-yl]-3-methoxy-N,N-dimethylbenzamide], the concentration for half-maximal inhibition (IC50) in test [1] is 0.1 to 1 µM; on IKKε it was below 0.1 µM; on TBK1, below 0.1 µM.

In the case of `COc1cc(C(=O)N(C)C)ccc1-c1cc2nccc(-c3ccc(C4(N5CCOCC5)CC4)c(C#N)c3)c2o1` [Compound 292, 4-(7-[3-cyano-4-[1-(morpholin-4-yl)cyclopropyl]phenyl]furo[3,2-b]pyridin-2-yl)-3-methoxy-N,N-dimethylbenzamide hydrochloride], the 50% inhibitory concentration (IC50) (in test [1]; at IKKε; on TBK1) was 0.1 to 1 µM in each case.

On to `CN(C)C(=O)c1cc(F)c(-c2cc3nccc(-c4ccc(NC5CCOCC5)c(C#N)c4)c3o2)c(F)c1` [Compound 295, 4-(7-[3-cyano-4-[(oxan-4-yl)amino]phenyl]furo[3,2-b]pyridin-2-yl)-3,5-difluoro-N,N-dimethylbenzamide hydrochloride], for which the IC50 in test [1] is 1 to 5 µM; on IKKε, below 0.1 µM; on TBK1, 0.1 to 1 µM.

As to `COc1cc(C(=O)N(C)CCO)ccc1-c1cc2ncc(F)c(-c3ccc(NC4CCOCC4)c(C#N)c3)c2o1` [Compound 296, 4-(7-[3-cyano-4-[(oxan-4-yl)amino]phenyl]-6-fluorofuro[3,2-b]pyridin-2-yl)-N-(2-hydroxyethyl)-3-methoxy-N-methylbenzamide], the IC50 in test [1] was 0.1 to 1 µM; at IKKε it was below 0.1 µM; at TBK1 it was below 0.1 µM.

For the molecule `COc1cc(C(=O)N(C)CCO)ccc1-c1cc2ncc(F)c(-c3ccc(OC4CCOCC4)c(C#N)c3)c2o1` [Compound 297, 4-[7-[3-cyano-4-(oxan-4-yloxy)phenyl]-6-fluorofuro[3,2-b]pyridin-2-yl]-N-(2-hydroxyethyl)-3-methoxy-N-methylbenzamide], the IC50 in test [1] was 0.1 to 1 µM; at IKKε it was below 0.1 µM; on TBK1 it was below 0.1 µM.

`COc1cc(C(=O)N(C)C)ccc1-c1cc2ncc(F)c(-c3ccc(OC4CCOCC4)c(C#N)c3)c2o1` [Compound 298, 4-[7-[3-cyano-4-(oxan-4-yloxy)phenyl]-6-fluorofuro[3,2-b]pyridin-2-yl]-3-methoxy-N,N-dimethylbenzamide]: the concentration for half-maximal inhibition (IC50) in test [1] is 0.1 to 1 µM; on IKKε, below 0.1 µM; on TBK1 it was below 0.1 µM.
